{"source": "patent US6162918A", "about": "“Xanthene and acridine derivatives” (priority 1996, dated 2000)", "key": {"[1]": {"target": "HSV-2 thymidine kinase (TK) (Human herpesvirus 2, UniProt P04407)", "sequence (P04407 whole entry)": "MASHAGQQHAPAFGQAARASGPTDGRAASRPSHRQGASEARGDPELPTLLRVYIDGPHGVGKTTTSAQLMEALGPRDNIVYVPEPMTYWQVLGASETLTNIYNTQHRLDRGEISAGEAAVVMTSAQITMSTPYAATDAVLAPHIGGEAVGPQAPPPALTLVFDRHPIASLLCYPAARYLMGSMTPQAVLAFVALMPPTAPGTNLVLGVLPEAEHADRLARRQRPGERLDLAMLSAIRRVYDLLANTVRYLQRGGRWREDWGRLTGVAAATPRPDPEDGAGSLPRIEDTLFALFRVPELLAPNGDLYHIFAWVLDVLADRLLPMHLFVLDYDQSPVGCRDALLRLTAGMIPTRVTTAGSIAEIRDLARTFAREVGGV", "assay": "Inhibition of HSV-2 thymidine kinase (3H-thymidine phosphorylation, DEAE-cellulose disc assay)", "assay_type": "biochemical", "method": "(§1) In this test procedure, the assay mixture contains […] Tris HCl, pH 8, 5 mmol magnesium chloride, 5 mmol ATP, […] 3H-thymidine (50 Ci/mmol), suitably diluted enzyme preparation and various concentrations of test compounds in a total volume of […]. Assays are incubated at 37° C. for 30 minutes and the reaction is terminated by immersion in a boiling water bath for 2 minutes. […] aliquots from each assay are then dried on to DEAE-cellulose paper discs and the unphosphorylated 3H-thymidine is removed by washing in 4 mmol ammonium formate. The radioactivity remaining bound to the discs is then measured by scintillation spectrophotometry. The degree of inhibition at each concentration of test compound is expressed as a percentage of the control reaction (100%) after subtracting a measured blank value which represents the amount of radioactivity bound to the disc from a reaction containing heat-inactivated enzymes. The IC50 value, namely the concentration of test compound which inhibits enzyme activity by 50%, is then calculated."}, "[2]": {"target": "HSV-1 thymidine kinase (TK) (Human herpesvirus 1, UniProt P0DTH5)", "sequence (P0DTH5 whole entry)": "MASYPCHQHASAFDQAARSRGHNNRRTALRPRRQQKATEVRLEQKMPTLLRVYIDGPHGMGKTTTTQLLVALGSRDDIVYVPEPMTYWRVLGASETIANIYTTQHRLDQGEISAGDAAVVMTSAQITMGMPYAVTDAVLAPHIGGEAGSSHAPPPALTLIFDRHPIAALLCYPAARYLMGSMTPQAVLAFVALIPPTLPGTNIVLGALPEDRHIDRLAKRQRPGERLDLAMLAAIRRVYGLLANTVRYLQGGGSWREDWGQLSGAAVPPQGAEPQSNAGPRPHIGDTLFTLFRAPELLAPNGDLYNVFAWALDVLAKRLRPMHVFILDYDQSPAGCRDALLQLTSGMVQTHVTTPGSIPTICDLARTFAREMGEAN", "assay": "Inhibition of HSV-1 thymidine kinase (3H-thymidine phosphorylation, DEAE-cellulose disc assay)", "assay_type": "biochemical", "method": "as §1"}, "[3]": {"conditions": "37° C., 30 minutes, pH 8, 3H-thymidine substrate, read-out: Activity against HSV-2 TK IC50 (nmol)"}, "[4]": {"conditions": "37° C., 30 minutes, pH 8, 3H-thymidine substrate, read-out: Activity against HSV-1 TK IC50 (nmol)"}}, "note": "pIC50: −log10 of the molar value. Where two headings read alike, the source gives them in different places."}
{"smiles": "CC1(C)CC(=O)C2=C(C1)NC1=C(C(=O)CC(C)(C)C1)C2c1ccc(Cl)c(-c2ccccc2)c1", "note": "[C, 9-[6-chloro-3-(1,1'-biphenylyl)]-3,4,6,7,9,10-hexahydro-3,3,6,6-tetramethyl-1,8(2H,5H)-acridinedione]", "values": [{"measurement": "pIC50", "setting": "[1]; [3]", "value": 9.57}, {"measurement": "pIC50", "setting": "[2]; [4]", "value": 9.28}]}
{"smiles": "CCc1cn([C@H]2C[C@H](O)[C@@H](CNC(=O)C3c4ccccc4Oc4ccccc43)O2)c(=O)[nH]c1=O", "note": "[2',5'-dideoxy-5-ethyl-5'-[(9-xanthenyl)carboxamido]uridine, reference compound]", "values": [{"measurement": "pIC50", "setting": "[1]", "value": 9.47}, {"measurement": "pIC50", "setting": "[2]", "value": 8.38}]}
{"smiles": "CC1(C)CC(=O)C2=C(C1)NC1=C(C(=O)CC(C)(C)C1)C2c1cccc(Oc2ccccc2)c1", "note": "[G, 3,4,6,7,9,10-hexahydro-3,3,6,6-tetramethyl-9-(3-phenoxyphenyl)-1,8(2H,5H)-acridinedione]", "values": [{"measurement": "pIC50", "setting": "[1]; [3]", "value": 8.96}, {"measurement": "pIC50", "setting": "[2]; [4]", "value": 8.24}]}
{"smiles": "CC1(C)CC(=O)C2=C(C1)NC1=C(C(=O)CC(C)(C)C1)C2c1ccc(Cl)c(-n2cccc2)c1", "note": "[F, 9-[4-chloro-3-(1H-pyrrol-1-yl)phenyl]-3,4,6,7,9,10-hexahydro-3,3,6,6-tetramethyl-1,8(2H,5H)-acridinedione]", "values": [{"measurement": "pIC50", "setting": "[1]; [3]", "value": 9.74}, {"measurement": "pIC50", "setting": "[2]; [4]", "value": 9.36}]}
{"smiles": "CC1(C)CC(=O)C2=C(C1)NC1=C(C(=O)CC(C)(C)C1)C2c1ccc(Cl)c(Oc2ccncc2)c1", "note": "[Compound I, 9-[4-chloro-3-(4-pyridyloxy)-phenyl]-3,4,6,7,9,10-hexahydro-3,3,6,6-tetramethyl-1,8(2H,5H)-acridinedione]", "values": [{"measurement": "pIC50", "setting": "[1]; [3]", "value": 9.72}, {"measurement": "pIC50", "setting": "[2]; [4]", "value": 9.10}]}
{"smiles": "CC1(C)CC(=O)C2=C(C1)NC1=C(C(=O)CC(C)(C)C1)C2c1ccc([N+](=O)[O-])c(OCc2ccccc2)c1", "note": "[J, 9-(3-benzyloxy-4-nitrophenyl)-3,4,6,7,9,10-hexahydro-3,3,6,6-tetramethyl-1,8(2H,5H)-acridinedione]", "values": [{"measurement": "pIC50", "setting": "[1]; [3]", "value": 9.42}, {"measurement": "pIC50", "setting": "[2]; [4]", "value": 9.05}]}
{"smiles": "CC1(C)CC(=O)C2=C(C1)NC1=C(C(=O)CC(C)(C)C1)C2c1ccc(Br)cc1", "note": "[H, 9(4-Bromophenyl)-3,4,6,7,9,10-hexahydro-3,3,6,6-tetramethyl-1,8(2H,5H)-acidinedione]", "values": [{"measurement": "pIC50", "setting": "[1]; [3]", "value": 8.82}, {"measurement": "pIC50", "setting": "[2]; [4]", "value": 7.92}]}
{"smiles": "CC1(C)CC(=O)C2=C(C1)NC1=C(C(=O)CC(C)(C)C1)C2c1ccc(Cl)c(Cl)c1", "note": "[D, 9-(3,4-dichlorophenyl)-3,4,6,7,9,10-hexahydro-3,3,6,6-tetramethyl-1,8(2H,5H)-acridinedione]", "values": [{"measurement": "pIC50", "setting": "[1]; [3]", "value": 9.19}, {"measurement": "pIC50", "setting": "[2]; [4]", "value": 8.03}]}
{"smiles": "CC1(C)CC(=O)C2=C(C1)NC1=C(C(=O)CC(C)(C)C1)C2c1ccc(Cl)c(F)c1", "note": "[E, 9-(4-chloro-3-fluorophenyl)-3,4,6,7,9,10-hexahydro-3,3,6,6-tetramethyl-1,8(2H,5H)-acridinedione]", "values": [{"measurement": "pIC50", "setting": "[1]; [3]", "value": 9.36}, {"measurement": "pIC50", "setting": "[2]; [4]", "value": 8.23}]}
{"smiles": "CC1(C)CC(=O)C2=C(C1)NC1=C(C(=O)CC(C)(C)C1)C2c1ccc(Cl)c(Sc2ccccc2)c1", "note": "[B, 9-(4-chloro-3-phenylthiophenyl)-3,4,6,7,9,10-hexahydro-3,3,6,6-tetramethyl-1,8(2H,5H)-acridinedione]", "values": [{"measurement": "pIC50", "setting": "[1]; [3]", "value": 9.92}, {"measurement": "pIC50", "setting": "[2]; [4]", "value": 9.25}]}
{"smiles": "CC1(C)CC(=O)C2=C(C1)NC1=C(C(=O)CC(C)(C)C1)C2c1ccc(Cl)c(Sc2ccncc2)c1", "note": "[K]", "values": [{"measurement": "pIC50", "setting": "[1]; [3]", "value": 9.27}, {"measurement": "pIC50", "setting": "[2]; [4]", "value": 8.59}]}
{"smiles": "CC1(C)CC(=O)C2=C(C1)NC1=C(C(=O)CC(C)(C)C1)C2c1ccc(Cl)c(Oc2ccccc2)c1", "note": "[A, 9-(4-chloro-3-phenoxyphenyl)-3,4,6,7,9,10-hexahydro-3,3,6,6-tetramethyl-1,8(2H,5H)-acridinedione]", "values": [{"measurement": "pIC50", "setting": "[1]; [3]", "value": 10.02}, {"measurement": "pIC50", "setting": "[2]; [4]", "value": 9.52}]}
